{"source": "patent US8541437B2", "about": "“Substituted 2,3,4,5-tetrahydro-1H-pyrido[4,3-b]indoles, methods for the production and use thereof” (Alla Chem, LLC, priority 2007, dated 2013)", "key": {"BALB/c male mice [1]": {"tested_on": "BALB/c male mice", "experiment": "Mice Training in the Morris Water maze, memory disturbed by Scopolamine", "assay_type": "in vivo", "conditions": "Scopolamine 0.6 mg/kg, 1.2.1(5)HCl 0.1 mg/kg, 1.2.1(1)HCl 1 mg/kg, Tacrine 3 mg/kg", "protocol": "A round pool of 100 cm in diameter and sides height of 30 cm was used. It was filled with water at 20-22° C. A round ceramic platform of 14 cm height was placed in the pool. Animals's behavior was registered with an automated computer video system in combination with software package of movement analysis Any-maze (Stoelting Co., US). The experiments were carried out on aged male mice of BALB/c line weighing 20-24 grams. Before the experiments mice suitable for training were selected. This was done by placing the platform 1 cm above the water level and putting an animal on the platform for 20 seconds. Then the mouse was sunk into the water on the opposite side of the pool, allowed to find the platform and climb it for 60 seconds, where it was left for additional 20 seconds. After that the mouse was repeatedly immersed into the water on the opposite side of the pool and allowed to look for the platform. If it failed in finding the platform within 60 seconds the experimentator helped it to find the platform and climb it. If the mice couldn't find the platform itself in two consecutive attempts it was excluded from the experiment. During the next two days the platform was placed 0.5 cm lower the water level. Every day the mice were given four attempts for finding the platform within 60 seconds. The time interval between the attempts was 20 seconds, during which the mice stayed on the platform. Every day before the first attempt the mice was placed on the platform for 20 seconds. The time needed for finding and climbing the platform was registered. The animals were sunk into water in two different places on the side of the pool opposite to the platform. […] The animals of the control group were injected with physiological solution. At least 8 animals were used in each group. On the third day the platform was removed and each animal was placed one time into the pool for a period of 60 seconds. The time each mouse spent in the area where the platform had been located during the previous days was registered. […]"}, "BALB/c male mice [2]": {"tested_on": "BALB/c male mice", "experiment": "Passive Avoidance of Mice in the Shuttle Chamber, scopolamine or MK-801 (Example 8)", "assay_type": "in vivo", "conditions": "scopolamine 0.3 mg/kg or MK-801 0.1 mg/kg", "protocol": "A shuttle chamber (Ugo Basile, Italy) consisted of two sections was used. […] The sections were connected through a hole which could be shut with a vertical door. The floor was made of transverse metal bars on which DC current impulses could be fed. Experiments were carried out in aged male mice of BALB/c line weighing 20-24 grams.\nOn the first day of the experiment 30 minutes before training the mice were injected intraintestinally with physiological solution of scopolamine (0.3 mg/kg) or Scopolamine in combination with antagonists of 5-HT6 receptors 1.2.1(2)HCl, 1.2.1(4)HCl or 1.2.1(5)HCl. Each group consisted of at least 8 animals. The animals were placed in the light section, and the latent period of the first entry into the dark chamber was registered. Then the vertical door was shut and the animal was punished by 0.6 mA DC current for 3 seconds. After that the animal was returned to its living cage. In 22-24 hours the same animal was placed again in the light section of the shuttle chamber and the latent period of its first entry into the dark section, the total time of its stay in the light section and the number of entries into the dark section were registered. Each observation lasted for 5 minutes.\nThe experiment was carried out as in example 7. […]"}, "SHK male mice": {"tested_on": "SHK male mice", "experiment": "Novel object recognition by mice against the background of Scopolamine and MK-801", "assay_type": "in vivo", "conditions": "Scopolamine 1 mg/kg, MK-801 0.2 mg/kg", "protocol": "The experiments were carried out in a cross like maze which consisted of 4 peripheral arms connected with the central chamber by 7×7 cm holes. The maze was made of black plastic and its arms were of 14×14×14 cm size. The top cover of the maze was transparent.\nA mouse was placed in the central chamber of the maze and allowed to investigate the environment. Criterion of entering an arm by the animal was detecting of all its paws inside the arm. The test was considered to be completed when the mouse had accomplished 12 transitions between the arms (having made 13 visits). The floor of the maze was cleaned after each animal.\nThe test was carried out twice with each mouse with 1 hour interval.\nDuring the first test each arm of the maze contained a circular plastic cup of 3 cm height and 7 cm diameter. In the second test the cover of each two opposing arms was replaced by a conical glass flask of 7 cm height and 4 cm across the bottom. The time the mouse spent in each arm of the maze was registered and the index of novel object recognition was calculated as the ratio of the time the mouse spent in the arms with the flasks to the time it spent in all arms of the maze. If no preference was given to the arms with novel objects the index was 0.5.\nThe mice spend more time in the arm containing novel objects that results in an increasing of recognition index. Scopolamine (1 mg/kg) and MK-801 (0.2 mg/kg) disturbed learning (memory) that leads to the lowering of recognition index."}, "BALB/c male mice [3]": {"tested_on": "BALB/c male mice", "experiment": "Mice Behavior in the Elevated Plus Maze", "assay_type": "in vivo", "source_text": "Plus Maze”. The length of each arm in the labyrinth was 30 cm, the width was 5 cm, the height of the walls was 15 cm. Two opposite arms were closed from sides and end faces by transparent walls, the other two arms were lit and opened. A mouse was placed in the center of the maze and for the next five minutes the number of entries the open and closed sections and the time spent in each type of arms was registered. […]"}, "5-HT6 receptor": {"biological_target": "T1, 5-HT6 receptor (Homo sapiens, UniProt P50406)", "T1 construct": "expressed in transfected cells; host or cells: HEK 293", "T1 sequence (P50406 whole entry)": "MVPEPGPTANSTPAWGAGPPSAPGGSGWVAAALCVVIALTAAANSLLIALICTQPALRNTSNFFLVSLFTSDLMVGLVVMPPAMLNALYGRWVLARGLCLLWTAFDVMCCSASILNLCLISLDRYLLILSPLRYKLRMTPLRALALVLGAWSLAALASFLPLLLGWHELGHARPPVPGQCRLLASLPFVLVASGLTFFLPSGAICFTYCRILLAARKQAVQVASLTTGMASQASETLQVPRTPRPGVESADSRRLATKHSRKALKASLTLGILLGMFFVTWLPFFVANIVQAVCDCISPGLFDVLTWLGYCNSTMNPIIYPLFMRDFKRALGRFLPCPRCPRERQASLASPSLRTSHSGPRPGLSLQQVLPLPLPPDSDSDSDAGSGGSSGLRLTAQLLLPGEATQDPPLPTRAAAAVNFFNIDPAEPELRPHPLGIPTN", "experiment": "Inhibition of serotonin-stimulated intracellular cAMP in HEK 293 cells with expressed 5-HT6 receptor (LANCE cAMP)", "assay_type": "cell-based", "conditions": "serotonin-induced cAMP", "protocol": "The cells HEK 293 (kidney cells of a human embryon) with an artificially expressed 5-HT6 receptor, activation of which with serotonin results in intracellular cAMP increasing, were used. The concentration of intracellular cAMP was determined using a LANCE cAMP reagent (PerkinElmer) by the method described by the manufacturer: [http://las.perkinelmer.com/content/Manuals/MAN_LANCEcAMP384KitUser.pdf].\nThe effectiveness of the compounds was estimated on the basis of their ability to reduce the concentration of intracellular cAMP induced by serotonin, FIG. 1."}, "H1 histamine receptor": {"biological_target": "H1 histamine receptor (Homo sapiens, UniProt P35367)", "sequence (P35367 whole entry)": "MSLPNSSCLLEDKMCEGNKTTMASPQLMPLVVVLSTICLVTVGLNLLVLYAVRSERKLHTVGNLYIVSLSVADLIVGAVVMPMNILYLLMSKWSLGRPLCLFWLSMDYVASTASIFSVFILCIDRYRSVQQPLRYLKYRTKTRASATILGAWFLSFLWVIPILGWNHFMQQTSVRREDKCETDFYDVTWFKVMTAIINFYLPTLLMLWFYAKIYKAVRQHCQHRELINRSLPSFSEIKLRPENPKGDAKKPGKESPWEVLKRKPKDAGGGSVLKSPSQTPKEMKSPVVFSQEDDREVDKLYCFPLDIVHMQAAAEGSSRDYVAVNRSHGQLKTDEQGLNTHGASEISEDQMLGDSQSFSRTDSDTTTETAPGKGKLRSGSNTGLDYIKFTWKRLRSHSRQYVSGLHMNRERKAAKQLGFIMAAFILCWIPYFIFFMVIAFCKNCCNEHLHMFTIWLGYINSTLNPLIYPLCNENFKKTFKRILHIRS", "experiment": "Histamine-induced intracellular calcium in SK-N-SH cells (Fura 2 AM), Phase 1: block of calcium entry", "quoted_text": "SK-N-SH Cells (ATCC, USA) were grown in DMEM medium (Invitrogen, USA) containing 10% fetal calf serum (FBS) and Penicillin-Streptomycin antibiotics, in CO2 incubator (5% CO2) until getting the cell density 1*10^5 cells/cm^2. The cells were removed from the surface of the flask with TrypLE Express reagent (Invitrogen, USA), then collected by means of centrifugation and resuspended in Hybridoma Serum Free Medium (HSFM, Sigma, USA) providing the concentration of 4*10^6 cells/ml. For measuring the intracellular concentration of calcium the cells were loaded with the calcium-sensitive fluorescent dye Fura 2 AM (Invitrogen, USA) by incubating their suspension with the dye for 30 minutes at room temperature. Again, the cells were collected by centrifugation, resuspended in HSFM; incubated for 15 minutes, recollected by centrifugation, washed twice with HSFM and resuspended in HSFM setting up the concentration 4*10^6 cells/ml. The cells were diluted with an operating buffer (NaCl 0.145 M, KCl 0.0054 M, NaH2PO4 0.001 M, MgSO4 0.0008 M, CaCl2 0.0018 M, HEPES 0.03 M, D-glucose 0.0112 M pH 7.4) to the concentration of 1*10^5 cells/ml in a measuring cell with a magnet stirrer, after that the fluorescence registration was carried out in the mode of two-wavelength excitement (340 and 380 nm, respectively) with an emission wavelength of 510 nm (F1 and F2, respectively). In 20 seconds after the beginning of registration, 10 mM of histamine water solution was added (a final concentration is 10 μM). […] In order to estimate the biological activity of the compounds, their serial DMSO dilutions were prepared and the correlation between the influence of the compound on the histamine induced calcium stream and its concentration was determined. The transforming fluorescent signal into calcium concentration was carried out by means of the equation built in the program Super Ion Probe (Shimadzu) software. For this purpose the maximum concentration of free calcium was determined by adding 0.1 mg/ml of digitonine (Sigma, USA) up to 0.1 mg/ml, while the zero calcium concentration—by adding of ethylene-diamin-tetraacetate (EDTA) up to 10 mM. Kinetic curves of lowering intracellular calcium concentration after the addition of the tested compound in the presence of histamine were calculated with a single-phase exponential model using the Prism 4 software (GraphPad Software, Inc.): [Ca]=[Ca]max*exp(−K*T)+[Ca]min where T is the time after the tested compound was added, [Ca]max and [Ca]min are the maximum (the peak value after the addition of histamine) and the minimum (the equilibrium level the curve approached after the addition of the tested compound) concentrations of intracellular calcium, K is the rate constant of intracellular calcium concentration lowering calculated by minimization of least square deviations.\nThe calculated rate constants of calcium concentration lowering (K) were used to determine their dependence on the tested compound concentration (C); and by means of the program Prism 4 using this dependence the values of EC50 (the concentration of the tested compound corresponding to half-maximum increasing of the rate constant of intracellular calcium concentration lowering) were determined by virtue of four parameter equation\n[formula] where KBkg and Kmax are the rate constants of calcium concentration lowering without and in the presence of infinitely large concentration of the tested compound, respectively; N is Hill's coefficient."}, "BALB/c male mice [4]": {"tested_on": "BALB/c male mice", "experiment": "Passive Avoidance of Mice in a Shuttle Chamber, memory disturbed by scopolamine (Example 7)", "assay_type": "in vivo", "conditions": "scopolamine 0.3 mg/kg", "protocol": "A shuttle chamber (Ugo Basile, Italy) consisted of two sections was used. […] The sections were connected through a hole which could be shut with a vertical door. The floor was made of transverse metal bars on which DC current impulses could be fed. Experiments were carried out in aged male mice of BALB/c line weighing 20-24 grams. On the first day of the experiment 30 minutes before training the mice were injected intraintestinally with physiological solution of scopolamine (0.3 mg/kg) or Scopolamine in combination with antagonists of 5-HT6 receptors 1.2.1(2)HCl, 1.2.1(4)HCl or 1.2.1(5)HCl. Each group consisted of at least 8 animals. The animals were placed in the light section, and the latent period of the first entry into the dark chamber was registered. Then the vertical door was shut and the animal was punished by 0.6 mA DC current for 3 seconds. After that the animal was returned to its living cage. In 22-24 hours the same animal was placed again in the light section of the shuttle chamber and the latent period of its first entry into the dark section, the total time of its stay in the light section and the number of entries into the dark section were registered. Each observation lasted for 5 minutes. The experiment was carried out during the day time in an isolated laboratory using white noise at a level of about 70 decibel above the human hearing threshold. Scopolamine causes the disturbance of training (memory loss) which results in […] and a decreased number of entries into the dark section. The fact that 5-HT6 receptor antagonists can improve the learning ability that has been disturbed by scopolamine is regarded as evidence for their nootropic effect."}}, "note": "pEC50, pIC50: −log10 of the molar value.", "data": [{"smiles": "Cc1ccc2c(c1)c1c(n2CCc2ccccc2)CCN(C)C1.Cl", "note": "[1.2.1(1)HCl, 2,8-dimethyl-5-(2-phenethyl)-2,3,4,5-tetrahydro-1H-pyrido[4,3-b]indole hydrochloride]", "values": [{"measurement": "improvement of mice's training (Morris water maze, FIG. 11-12)", "setting": "BALB/c male mice [1]", "value": "statistically significant improvement of mice's training"}, {"measurement": "nootropic action (passive avoidance, FIGS. 5-10)", "setting": "BALB/c male mice [2]", "value": "highest activity"}, {"measurement": "nootropic action (novel object recognition, FIG. 13-14)", "setting": "SHK male mice", "value": "nootropic action, the level of which is the most prominent"}, {"measurement": "tranquilizing action (elevated plus maze, FIG. 19-21)", "setting": "BALB/c male mice [3]", "value": "exhibit a tranquilizing action, which is the most prominent"}]}, {"smiles": "Cc1ccc2c(c1)c1c(n2CCc2ccncc2)CCN(C)C1.Cl", "note": "[1.2.1(2)HCl, 2,8-dimethyl-5-[2-(pyridin-4-yl)ethyl]-2,3,4,5-tetrahydro-1H-pyrido[4,3-b]indole hydrochloride]", "values": [{"measurement": "pIC50", "setting": "5-HT6 receptor", "value": 6.37}, {"measurement": "pEC50", "setting": "H1 histamine receptor", "value": 6.80}, {"measurement": "nootropic action (passive avoidance, FIGS. 2-4)", "setting": "BALB/c male mice [4]", "value": "exhibit a nootropic action which is the most prominent"}]}, {"smiles": "Cc1ccc2c(c1)c1c(n2CCc2ccccn2)CCN(C)C1.Cl", "note": "[1.2.1(4)HCl, 2,8-dimethyl-5-[2-(pyridin-2-yl)ethyl]-2,3,4,5-tetrahydro-1H-pyrido[4,3-b]indole hydrochloride]", "values": [{"measurement": "pEC50", "setting": "H1 histamine receptor", "value": 6.30}, {"measurement": "nootropic action (passive avoidance, FIGS. 2-4)", "setting": "BALB/c male mice [4]", "value": "exhibit a nootropic action which is the most prominent"}]}, {"smiles": "Cc1ccc2c(c1)c1c(n2CCc2ccc(C)nc2)CCN(C)C1.Cl", "note": "[1.2.1(5)HCl, 2,8-dimethyl-5-[2-(6-methylpyridin-3-yl)ethyl]-2,3,4,5-tetrahydro-1H-pyrido[4,3-b]indole hydrochloride, reference compound]", "values": [{"measurement": "pIC50", "setting": "5-HT6 receptor", "value": 5.36}, {"measurement": "improvement of mice's training (Morris water maze, FIG. 11-12)", "setting": "BALB/c male mice [1]", "value": "statistically significant improvement of mice's training"}, {"measurement": "pEC50", "setting": "H1 histamine receptor", "value": 6.80}, {"measurement": "nootropic action (passive avoidance, FIGS. 5-10)", "setting": "BALB/c male mice [2]", "value": "act as nootropic"}, {"measurement": "nootropic action (passive avoidance, FIGS. 2-4)", "setting": "BALB/c male mice [4]", "value": "exhibit a nootropic action"}, {"measurement": "nootropic action (novel object recognition, FIG. 13-14)", "setting": "SHK male mice", "value": "nootropic action"}, {"measurement": "tranquilizing action (elevated plus maze, FIG. 19-21)", "setting": "BALB/c male mice [3]", "value": "exhibit a tranquilizing action"}]}, {"smiles": "O=C1CC2(CCCC2)CC(=O)N1CCCCN1CCN(c2ncccn2)CC1", "note": "[Buspiron]", "values": [{"measurement": "tranquilizing action (elevated plus maze, FIG. 19-21)", "setting": "BALB/c male mice [3]", "value": "exhibit a tranquilizing action"}]}, {"smiles": "Nc1c2c(nc3ccccc13)CCCC2", "note": "[Tacrine]", "values": [{"measurement": "improvement of mice's training (Morris water maze, FIG. 11-12)", "setting": "BALB/c male mice [1]", "value": "statistically significant improvement of mice's training"}]}]}
